Reference: patent US9399649B2, “Compounds for treating spinal muscular atrophy” (PTC Therapeutics Inc., priority 2012, dated 2016)

Columns and labels:
Smn protein = Smn protein assay in cultured cells (SMN HTRF); format: cell-based, human; conditions: SMA patient fibroblast cells (GM03813), 48 hours; for EC1.5x for Smn protein expression: 7-point concentration curve, concentration producing 1.5 times Smn protein vs DMSO vehicle; for maximum fold (Fold) increase of Smn protein: 7-point concentration data, relative to vehicle control
How it was run: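 SMA patient fibroblasts, 5,000 per well in DMEM-10% FBS, exposed 48 h at 37° C. to a 7-point, 3.16-fold compound series in triplicate. RIPA lysates read by SMN HTRF (665/620 nm, overnight at room temperature); ΔF over blank expressed as fold of vehicle.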

[1] = tested on: full length SMN2 minigene mRNA containing SMN2 exon 7; assay: SMN2 minigene mRNA splicing RT-qPCR assay in cultured cells; format: cell-based, human; conditions: Homo sapiens, HEK293-H; HEK293H cells stably transfected with SMN2-A minigene, 24 hours, 7-point concentration curve; concentration giving 1.5-fold full length SMN2 mRNA vs vehicle; read-out: EC1.5x for production of full length SMN2 mRNA
How it was run: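 HEK293H cells stably carrying SMN2-A minigene treated 24 h (37 °C) with compound, 7-point 3.16-fold dilution, duplicates. Multiplex RT-qPCR on lysate with exon 7/luciferase primers and exon 7–8 junction probe (minigene-specific). Full-length transcript normalised to GAPDH by modified ΔΔCt, expressed relative to vehicle-treated cells.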

| SMILES | EC1.5x for Smn protein expression (Smn protein) | maximum fold (Fold) increase of Smn protein (Smn protein) | melting point [°C] | EC (1.5-fold) [1] [µM] |
| --- | --- | --- | --- | --- |
| CN1CCN(c2ccc3cc(-c4ccc5nn(C)cc5c4)oc(=O)c3c2)CC1 [Cpd 157, 3-(2-methyl-2H-indazol-5-yl)-7-(4-methylpiperazin-1-yl)-1H-isochromen-1-one] | **** (an EC1.5×≦0.3 nM is indicated by four stars (****)) | **** (a fold increase between >1.5 and ≦1.65 is indicated by four stars (****)) | 239 to 240 | ≤ 0.1 |
| CCc1nc(C)cn2cc(-c3cc4ccc(N5C[C@@H](C)N(C)[C@@H](C)C5)cc4c(=O)o3)nc12 [Cpd 158, 3-(8-ethyl-6-methylimidazo[1,2-a]pyrazin-2-yl)-7-[(3R,5S)-3,4,5-trimethylpiperazin-1-yl]-1H-isochromen-1-one] | **** (an EC1.5×≦0.3 nM is indicated by four stars (****)) | ***** (a fold increase >1.65 is indicated by five stars (*****)) | 235 to 238 | ≤ 0.1 |
| CCc1nc(C)cn2cc(-c3cc4ccc(C5=CCNCC5)cc4c(=O)o3)nc12 [Cpd 159, 3-(8-ethyl-6-methylimidazo[1,2-a]pyrazin-2-yl)-7-(1,2,3,6-tetrahydropyridin-4-yl)-1H-isochromen-1-one] | **** (an EC1.5×≦0.3 nM is indicated by four stars (****)) | ***** (a fold increase >1.65 is indicated by five stars (*****)) | 239 to 241 | ≤ 0.1 |
